Consider 8 compounds from patent US5565489A, “Epoxycyclohexenedione derivatives” (Kyowa Hakko Kogyo Co., Ltd., priority 1993, dated 1996).

≈ marks a conversion by molar mass, not a printed value. Where only a bound is given, the exact number is not on record here.

The subject of assay [1] is Enterococcus faecium ATCC 10541. Description: Antimicrobial activity, agar dilution method (EF). The following applies: ATCC10541, pH 7. It counts as cell-based. As to the method:
(§1) Antimicrobial activity was measured by an agar dilution method using a culture medium (pH 7) prepared by dissolving 3 g of Bacto-tryptone (Difco), 3 g of meat extract, 1 g of yeast extract, 1 g of glucose, and 16 g of agar in 1 l of water. The antimicrobial activity was expressed in terms of minimum growth inhibitory concentration (MIC).

The test system of assay [2] is Staphylococcus aureus, Enterococcus faecium, Bacillus subtilis. Description: Antimicrobial activity, agar dilution method (summary of Table 4). It is filed as cell-based. As to conditions: Table 4 summary. As to the method:
as §1
On the technique in general: In agar dilution the substance is mixed into plates at graded concentrations.

Assay [3] concerns the target T1, FTase (Bos taurus, UniProt P29702+P49355).
T1 construct: An extract of minced bovine brain was subjected to column chromatography on DEAE-Sephacel (Pharmacia); from tissue; host or cells: bovine brain; DEAE-Sephacel active fraction, crude enzyme solution
Nature of the assay: FTase inhibitory activity (farnesylation of C-terminal peptide of lamin B, crude bovine brain enzyme, FTase [^3 H]SPA enzyme assay kit). The following applies: for inhibitory activity against FTase (in words): Table 2 summary; for IC50: bovine brain enzyme, lamin B C-terminal peptide. It counts as biochemical. Here is the method: (§2) FTase Inhibitory Activity
An extract of minced bovine brain was subjected to column chromatography on DEAE-Sephacel (Pharmacia). The active fraction was concentrated by ultrafiltration and dialyzed against a mixture of 20 mM Tris-HCl (pH 8.0), 50 mM NaCl, […], 1 mM DTT, 0.2 mM phenylmethylsulfonyl fluoride (PMSF). The resulting dialysate was used as a crude enzyme solution. Measurement of activity was carried out by using the enzyme obtained by the above-mentioned method and an FTase [^3 H]SPA enzyme assay kit (Amersham). Enzyme inhibitory activity was measured as inhibition of farnesylation of the C-terminal peptide of lamin B by the test compound in the above-mentioned reaction system. The enzyme inhibitory activity of a group treated with a test compound of a known concentration was compared with that of a non-treated group to calculate the concentration of the test compound for 50% inhibition of farnesylation (IC50).

For assay [4], the system named is Staphylococcus aureus ATCC 6538P. Nature of the assay: Antimicrobial activity, agar dilution method (SA). It is filed as cell-based. As to conditions: ATCC6538P, pH 7. Here is the method:
as §1

The subject of assay [5] is Bacillus subtilis No. 10707. Description: Antimicrobial activity, agar dilution method (BS). It counts as cell-based. The following applies: pH 7. Here is the method: as §1
Assay [6] concerns the target FTase of yeast origin. The following applies: ras protein of yeast origin as substrate; read-out: IC50 against FTase of yeast origin; cited from earlier work.
Assay [7] concerns the target T2, FTase (Rattus norvegicus, UniProt Q02293+Q04631).
T2 construct: The FTase used for the assay was obtained from rat brain as follows; from tissue; host or cells: male rat brain; ammonium sulfate fraction, Mono Q 10/10, partially purified
Description: FTase inhibitory activity (farnesylation of v-Ki-ras p21, partially purified rat brain FTase). It counts as biochemical. The following applies: for IC50: rat brain FTase, v-Ki-ras p21 substrate. As to the method: as §2
The FTase used for the assay was obtained from rat brain as follows. An extract of minced brain of a male rat was salted out using ammonium sulfate. The fraction obtained at 50% saturation was dissolved in a buffer solution (20 mM Tris-HCl, pH 7.5, 1 mM dithiothreitol (DTT), 20 μM ZnCl2) and further fractionated by column chromatography using a Mono Q 10/10 column. The column was eluted by gradient elution with 0.3 to 0.4 M NaCl. The active fraction eluted at near 0.35 M NaCl, was used as a partially purified preparation. Measurement of the activity was carried out by using the thus prepared enzyme and v-Ki-ras p21 as a substrate. The v-Ki-ras p21, used as a substrate, was obtained by high expression using Escherichia coli, followed by purification according to the method of Tamaoki, et al. [Biochem. Biophys. […] The enzyme inhibitory activity was measured as inhibition of the test compound on farnesylation of the C-terminal of v-ki-ras p21 in the above-mentioned reaction system.

In assay [8] the test system is FTase. As to conditions: not numerically described; cited from earlier work.
In assay [9] the test system is NIH 3T3 fibroblasts transformed by oncogene EJ-ras. Description: Inhibitory activity on cell growth of NIH 3T3/EJ-ras. It counts as cell-based. Here is the method: Inhibitory Activity on Cell Growth
The antitumor activity was measured by using NIH 3T3 fibroblasts transformed by oncogene EJ-ras (hereinafter referred to as "NIH 3T3/EJ-ras").
NIH 3T3/EJ-ras cells were suspended in a DME medium (Nissui KK) containing 10% fetal bovine serum, penicillin (100 U/ml) and streptomycin (100 μg/ml) (hereinafter referred to as medium A) in a cell concentration of 1.0×10^4 cells/ml. Each well of a […] microtiter plate was inoculated with 0.1 ml of the cell suspension, and the system was monolayer cultured by incubation in a carbondioxide incubator at 37° C. for 24 hours. To each well was added 0.1 ml of a test compound appropriately diluted with medium A, followed by incubation in the carbondioxide incubator at 37° C. for 72 hours. The cells were recovered by trypsinization, and the number of the cells was counted with a cell counter. A concentration of the test compound for 50% inhibition of cell growth (IC50) was calculated.

One may read the MIC as the lowest concentration that inhibits growth of the organism. The low end stands for inhibition by little substance, the high end for a need for much substance. What is called IC50 is the concentration that inhibits the measured activity by half. Regarding `CCCCC/C=C\C/C=C\CCCCCCCC(=O)NC1=CC(=O)C2OC2C1=O` (stereo not drawn) [Compound I-4, 4,5-Epoxy-1-linoleoylamino-3,6-dioxocyclohexene], the MIC in assay [1] is 0.33 µg/mL (≈ 0.822 µM); in assay [4] it was more than 100 µg/mL; in assay [5], 0.65 µg/mL (≈ 1.62 µM). For the same compound, the “antimicrobial activity (in words)” value in [2] is listed as “remarkable antimicrobial activity”. Moreover, the “inhibitory activity against FTase (in words)” value in assay [3] was “obvious inhibitory activity against FTase”. Besides, the IC50 in [3] was determined as 19 µM.

As to `CCCC[C@@H](C)/C=C(C)/C=C(\C)C(=O)NC1=C[C@](O)(/C=C/C=C/C=C/C(=O)NC2=C(O)CCC2=O)[C@@H]2O[C@@H]2C1=O` [Manumycin, reference compound], the values for the IC50 in assay [6], in assay [7] (Experiment 1) and in assay [7] (Experiment 2) were 5 µM, 76 µM and 35 µM, respectively.

As to `CCCCCCCCCCCC(=O)NC1=CC(=O)C2OC2C1=O` (stereo not drawn) [Compound I-2, 4,5-Epoxy-l-lauroylamino-3,6-dioxocyclohexene], the MIC in [1] was 0.04 µg/mL (≈ 0.124 µM); in [4], more than 100 µg/mL; in assay [5] it was 0.08 µg/mL (≈ 0.249 µM). Moreover, in [2], the “antimicrobial activity (in words)” value is given as “remarkable antimicrobial activity”. Further, the “inhibitory activity against FTase (in words)” value in [3] was “obvious inhibitory activity against FTase”. Also, the IC50 in [3] came to 21 µM.

Consider `CCCCC(C)/C=C(\C)C(=O)NC1=CC(=O)[C@@H]2O[C@@H]2C1=O` (stereo partly drawn) [IVb], for which, in assay [8], the “FTase inhibitory activity (in words)” value is “the activity of these compounds can be detected”.

On to `CC(C)=CCC/C(C)=C/CC/C(C)=C/CC/C(C)=C/C(=O)NC1=CC(=O)C2OC2C1=O` (stereo not drawn) [Compound I-5, 4,5-Epoxy-1-geranylgeranoylamino-3,6-dioxocyclohexene], for which the MIC in assay [1] was 0.65 µg/mL (≈ 1.53 µM); in assay [4] it was more than 100 µg/mL; in assay [5], 0.65 µg/mL (≈ 1.53 µM). In addition, the “antimicrobial activity (in words)” value in [2] is “remarkable antimicrobial activity”. For the same compound, the “inhibitory activity against FTase (in words)” value in assay [3] is given as “obvious inhibitory activity against FTase”. Also, the IC50 in assay [3] worked out at 23 µM.

With `CCCCC(C)/C=C(C)/C=C/C(=O)NC1=CC(=O)[C@@H]2O[C@@H]2C1=O` (stereo partly drawn) [IVc], the “FTase inhibitory activity (in words)” value in assay [8] is listed as “the activity of these compounds can be detected”.

In the case of `CC(C)=CCC/C(C)=C/CC/C(C)=C/C(=O)NC1=CC(=O)[C@@H]2O[C@@H]2C1=O` (relative stereo) [Compound I-1, 4,5-Epoxy-1-farnesoylamino-3,6-dioxocyclohexene], the results for the MIC in [1], in [4] and in assay [5] were 0.46 µg/mL (≈ 1.29 µM), 0.91 µg/mL (≈ 2.55 µM) and 0.46 µg/mL (≈ 1.29 µM), respectively. Besides, the “antimicrobial activity (in words)” value in [2] is on record as “remarkable antimicrobial activity”. The “inhibitory activity against FTase (in words)” value in [3] and in assay [7] (Table 1 summary) was “obvious inhibitory activity against FTase” each time. The half-inhibitory concentration (IC50) was determined as 21 µM in assay [3]; 18 µM in assay [7] (Experiment 1); 4.3 µM in assay [9] (Mus musculus, NIH3T3, NIH 3T3/EJ-ras, 72 hours). Besides, in assay [7] (Table 1 summary, as compared with manumycin and compound IVa), the “inhibitory activity compared with manumycin and compound IVa (in words)” value is “significantly strong as compared with those of manumycin and compound IVa”. Also, in assay [9] (Table 3 summary), the “inhibitory activity on growth (in words)” value was “obvious inhibitory activity on growth of the NIH 3T3 fibroblasts transformed by oncogene EJ-ras”.

In the case of `CCCC[C@@H](C)/C=C(C)/C=C(\C)C(=O)NC1=CC(=O)[C@@H]2O[C@@H]2C1=O` [IVa, reference compound], in [8], the “FTase inhibitory activity (in words)” value is reported as “the activity of these compounds can be detected”. For the same compound, the IC50 in [7] (Experiment 2) is 60 µM.
